# Key:
# [1] = system: NCI-H522 (lung) xenograft tumors; assay: tumor growth inhibition, NCI-H522 murine xenograft model; format: in vivo, mice; settings: IP 40 mg/kg, days 0,1,2,5,6,7,10,11,12
# Experimental: Tumor growth inhibition of compound 4 was measured in several murine xenograft models, and the results of individual experiments are listed in Table 14. Tumors were initiated by subcutaneous injection of either tumor cells from cell culture or tumor fragments from continuous in vivo passage. When tumors reached volumes between approximately 100 and 200 mm^3, the mice were divided into vehicle and treatment groups. Compound or vehicle was administered by IP injection in a volume of 5-10 mL/kg.
# Changes in tumor weight (delta weights) for each treated (T) and control (C) group are calculated for each day tumors are measured by subtracting the median tumor weight on the first day of treatment (staging day) from the median tumor weight on the specified observation day. These values are used to calculate a percent T/C as follows: % T/C=(delta T/delta C)×100. The optimal T/C is the minimal value obtained after the first treatment.
# NCI-H187 cells = assay: antiproliferation assay, NCI-H187; format: cell-based; settings: Homo sapiens
# Experimental: (§1) For the antiproliferation assay, NCI-H460 (large cell lung carcinoma) or M14 (amelanotic melanoma) cells were grown in RPMI-1640 with 10% FBS supplemented with L-glutamine and HEPES. Cells were seeded into 96-well plates at 5×10^2 to 5×10^4 cells/well and allowed to adhere overnight; the medium was then removed. A stock solution of test compound in DMSO was diluted in medium to generate a series of working solutions. Aliquots (100 μl) of the working solutions were then added to the appropriate test wells to expose cells to the final concentrations of compound in a total volume of 100 μl. Seven different concentrations were tested, with 2-5 wells per concentration. Camptothecin was used as a positive control; wells containing vehicle without compound were used as negative controls. Plates were kept for 72 h in a 37° C., 5% CO2 incubator. After incubation, viable cells were detected with the CELLTITER 96 AQueous Non-Radioactive Cell Proliferation Assay (Promega), and IC50 values were determined using GraphPad Prism 5 software.
# (§2) Antiproliferation of several of the active compounds was tested against additional cell lines.
# HCT-15 cells = assay: antiproliferation assay, paclitaxel-resistant HCT-15; format: cell-based; settings: Homo sapiens
# Experimental: as §1
# Compound 4 was tested for antiproliferation activity against several paclitaxel-resistant human cancer cell lines.
# MOLT-4 cells = assay: antiproliferation assay, MOLT-4; format: cell-based; settings: Homo sapiens
# Experimental: as §1, §2
# HOP-62 cells = assay: NCI-60 panel antiproliferation, HOP-62; format: cell-based, human; settings: Homo sapiens, NCI 60-cell panel
# Experimental: (§3) Bifidenone and Compound 37 were tested for antiproliferation activity against the NCI-60 panel of cancer cell lines. COMPARE analysis was then conducted to compare the activity “fingerprint” of bifidenone to those of known classes of compounds (Zhou, B.-N., Hoch, J. M., Johnson, R. K., Mattern, M. R., Eng, W.-K., Ma, J., Hecht, S. M., Newman, D. J., Kingston, D. G. I., 2000. Use of COMPARE Analysis to Discover New Natural Product Drugs: Isolation of Camptothecin and 9-Methoxycamptothecin from a New Source. Journal of Natural Products 63, 1273-1276.).
# NCI-H226 cells = assay: NCI-60 panel antiproliferation, NCI-H226; format: cell-based, human; settings: Homo sapiens, NCI 60-cell panel
# Experimental: as §3
# A498 cells = assay: NCI-60 panel antiproliferation, A498; format: cell-based, human; settings: Homo sapiens, NCI 60-cell panel
# Experimental: as §3
# COLO205 cells = assay: NCI-60 panel antiproliferation, COLO205; format: cell-based, human; settings: Homo sapiens, COLO 205, NCI 60-cell panel
# Experimental: as §3
# IGR-OV1 cells = assay: NCI-60 panel antiproliferation, IGR-OV1; format: cell-based, human; settings: Homo sapiens, IGROV-1, NCI 60-cell panel
# Experimental: as §3
# T-47D cells = assay: NCI-60 panel antiproliferation, T-47D; format: cell-based, human; settings: Homo sapiens, T47D, NCI 60-cell panel
# Experimental: as §3
# SF-268 cells = assay: NCI-60 panel antiproliferation, SF-268; format: cell-based, human; settings: Homo sapiens, NCI 60-cell panel
# Experimental: as §3
# SK-Mel-2 cells = assay: NCI-60 panel antiproliferation, SK-MEL-2; format: cell-based, human; settings: Homo sapiens, NCI 60-cell panel
# Experimental: as §3
# 786-0 cells = assay: NCI-60 panel antiproliferation, 786-0; format: cell-based, human; settings: Homo sapiens, NCI 60-cell panel
# Experimental: as §3
# NCI-H322M cells = assay: NCI-60 panel antiproliferation, NCI-H322M; format: cell-based, human; settings: Homo sapiens, NCI 60-cell panel
# Experimental: as §3
# A549 cells = assay: NCI-60 panel antiproliferation, A549; format: cell-based, human; settings: Homo sapiens, NCI 60-cell panel
# Experimental: as §3
# KM12 cells = assay: NCI-60 panel antiproliferation, KM12; format: cell-based, human; settings: Homo sapiens, NCI 60-cell panel
# Experimental: as §3
# NCI-H23 cells = assay: NCI-60 panel antiproliferation, NCI-H23; format: cell-based, human; settings: Homo sapiens, NCI 60-cell panel
# Experimental: as §3
Compound,Maximum Mean Body Weight Loss [1],Optimal T/C [1],IC50 (NCI-H187 cells),IC50 (HCT-15 cells),IC50 (MOLT-4 cells),IC50 (HOP-62 cells),IC50 (NCI-H226 cells),IC50 (A498 cells),IC50 (COLO205 cells),IC50 (IGR-OV1 cells),IC50 (T-47D cells),IC50 (SF-268 cells),IC50 (SK-Mel-2 cells),IC50 (786-0 cells),IC50 (NCI-H322M cells),IC50 (A549 cells),IC50 (KM12 cells),IC50 (NCI-H23 cells)
"C=CC[C@H]1C[C@]2([C@H](C)Cc3cc(O)c(OC)cc3F)OCOC2=CC1=O (relative stereo) [Compound 4, 6-allyl-7a-(1-(2-fluoro-5-hydroxy-4-methoxyphenyl)propan-2-yl)-7,7a-dihydrobenzo[d][1,3]dioxol-5(6H)-one]",5%,13%,21 nM,< 5 nM,28 nM,–,–,–,–,–,–,–,–,–,–,–,–,–
"C=CC[C@H]1C[C@]2([C@@H](C)Cc3ccc(OC)c(F)c3)OCOC2=CC1=O [Compound 37, (6S,7aR)-6-allyl-7a-((S)-1-(3-fluoro-4-methoxyphenyl)propan-2-yl)-7,7a-dihydrobenzo[d][1,3]dioxol-5(6H)-one]",–,–,–,–,–,102 nM,141 nM,58 nM,67 nM,63 nM,> 10000 nM,623 nM,51 nM,120 nM,125 nM,55 nM,55 nM,123 nM
